Experimental data as given in ChEMBL document CHEMBL1667776, “Pharmacophore-based design, synthesis, and biological evaluation of novel chloro-pyridazine piperazines as human rhinovirus (HRV-3) inhibitors” (Bioorg Med Chem Lett, 2011).
In brackets after ≈: the same amount, converted by molar mass.

The compounds below were run on rhinovirus B14 (assay: Antiviral activity against HRV-14). Details: Rhinovirus B.
Format: functional, organism-based

Row | SMILES | EC50
1 | CCOc1nc2cc(OCCC3CCN(c4ccc(C)nn4)CC3)ccc2o1 | 0.032 µg/mL (≈ 0.0837 µM)
2 | CCOC(=O)c1ccc(OCCC2CCN(c3ccc(C)nn3)CC2)cc1 [PIRODAVIR] | 0.0032 µg/mL (≈ 0.00866 µM)
3 | Cc1cc(CCCOc2c(C)cc(-c3noc(C(F)(F)F)n3)cc2C)on1 [PLECONARIL] | 0.03 µg/mL (≈ 0.0787 µM)
